Measured values as given in patent US8044198B2, “Sirtuin modulating compounds” (Sirtris Pharmaceuticals, Inc., priority 2005, dated 2011).
Where two headings read alike, the source gives them in different places.

Target: T1, SIRT1 (Homo sapiens, UniProt Q96EB6)
T1 sequence (Q96EB6 1-747): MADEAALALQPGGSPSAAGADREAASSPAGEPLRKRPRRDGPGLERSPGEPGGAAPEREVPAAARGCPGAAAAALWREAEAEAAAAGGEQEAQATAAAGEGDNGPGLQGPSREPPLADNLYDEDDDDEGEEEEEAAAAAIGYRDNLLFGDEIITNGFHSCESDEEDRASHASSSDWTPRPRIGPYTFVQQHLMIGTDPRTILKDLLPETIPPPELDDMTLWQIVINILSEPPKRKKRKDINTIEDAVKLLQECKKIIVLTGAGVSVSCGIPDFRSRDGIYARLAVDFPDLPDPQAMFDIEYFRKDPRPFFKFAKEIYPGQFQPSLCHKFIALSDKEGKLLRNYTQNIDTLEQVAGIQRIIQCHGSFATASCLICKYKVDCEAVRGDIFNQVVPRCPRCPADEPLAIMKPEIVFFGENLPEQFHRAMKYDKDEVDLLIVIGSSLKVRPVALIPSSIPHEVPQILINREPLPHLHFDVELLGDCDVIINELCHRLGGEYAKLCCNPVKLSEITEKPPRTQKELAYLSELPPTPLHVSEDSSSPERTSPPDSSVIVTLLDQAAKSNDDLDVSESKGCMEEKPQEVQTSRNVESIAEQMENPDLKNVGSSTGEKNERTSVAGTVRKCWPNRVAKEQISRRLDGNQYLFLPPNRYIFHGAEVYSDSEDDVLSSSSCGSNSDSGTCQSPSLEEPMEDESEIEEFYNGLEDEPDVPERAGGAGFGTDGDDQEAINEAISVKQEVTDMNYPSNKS
Experiment: SIRT1 mass spectrometry (MS) based deacetylation assay; for FOLD ACT. MS: test concentration or dose not given here
Type: biochemical
Conditions: for EC50: read-out: ED50 MS ASSAY

[1] = Sirt1 activators, fold activation as determined by MS
[2] = Sirt1 activators, mass spectrometry assay
[3] = SIRT1 activation, mass spectrometry assay
[4] = fold activation of SIRT1, mass spectrometry assay
[5] = fold activation of SIRT1 as determined by MS
[6] = SIRT1 fold activation as determined by MS

Row | SMILES | EC50 [2] [µM] | EC50 [3] [µM] | other results
1 | COc1cc(C(=O)Nc2ccccc2-c2nc3ccccc3[nH]2)ccc1CN1CCOCC1 [Compound 503] | < 5 |  | FOLD ACT. MS [1]: A (A (Fold activation >250%))
2 | COc1ccc(C(=O)Nc2ccccc2-c2nc3cnccc3o2)c(OC)c1OC [Compound 421] |  | 5 to 50 | FOLD ACT. MS [4]: B (B (Fold Activation <250%))
3 | O=C(Nc1ccccc1-c1nc2cccnc2[nH]1)c1cccc(OC(F)(F)F)c1 [Compound 529] | < 5 |  | FOLD ACT. MS [1]: B (B (Fold Activation <250%))
4 | O=C(Nc1ccccc1-c1cn2c(n1)CCCC2)c1ccc2ccccc2n1 [Compound 547] | < 5 |  | FOLD ACT. MS [1]: B (B (Fold Activation <250%))
5 | COc1cc(C(=O)Nc2ccccc2-c2cn3c(CN4CCCC4)csc3n2)cc(OC)c1OC [Compound 620] | < 5 |  | FOLD ACT. MS [1]: B (B (Fold Activation <250%))
6 | COc1ccc(C(=O)N2CCCN(c3nc4ccccc4o3)CC2)c(OC)c1 [Compound 88] |  | > 150 | 
7 | COc1cc(C(=O)Nc2ccccc2-c2cccs2)cc(OC)c1OC [336 10] |  | 5 to 50 | FOLD ACT. MS [4]: B (B (Fold Activation <250%))
8 | COc1ccc(C(=O)Nc2ccccc2-n2cccc2)cc1OC [Compound 175] |  | 51 to 100 | FOLD ACT. MS [5]: B (B (Fold Activation <250%))
9 | COc1cc(C(=O)Nc2ccccc2-c2nc3cccnc3[nH]2)ccc1CN1CCCC1 [Compound 535] | 5 to 50 |  | FOLD ACT. MS [1]: A (A (Fold activation >250%))
10 | COc1cc(C(=O)Nc2ccc(-c3nc4ccccc4[nH]3)cc2)cc(OC)c1OC [Compound 263] |  | 5 to 50 | FOLD ACT. MS [4]: B (B (Fold Activation <250%))
11 | COc1ccc(C(=O)Nc2ccc(-c3cc4cccnc4o3)cc2)c(OC)c1 [Compound 190] |  | < 5 | FOLD ACT. MS [5]: B (B (Fold Activation <250%))
12 | COc1ccc(C(=O)Nc2cccc(-c3cc4cccnc4o3)c2)cc1OC [Compound 192] |  | 5 to 50 | FOLD ACT. MS [5]: B (B (Fold Activation <250%))
13 | CN(C)c1cccc(C(=O)Nc2cncc(-c3nc4ncccc4o3)c2)c1 [Compound 68] |  | 5 to 50 | 
14 | COc1cccc(C(=O)Nc2ccccc2-c2cn3c(CN4CCNCC4)csc3n2)c1 [Compound 738] |  | 5 to 50 | FOLD ACT. MS [6]: A (A (Fold activation >250%))
15 | COc1ccc(C(=O)Nc2cccc(-c3nc4ccccc4s3)c2)c(OC)c1 [Compound 124] |  | 5 to 50 | FOLD ACT. MS [5]: B (B (Fold Activation <250%))
16 | COc1cc(C(=O)Nc2cc(-c3nc4ncccc4o3)ccn2)ccc1CN1CCNCC1 [Compound 638] | > 150 |  | FOLD ACT. MS [1]: B (B (Fold Activation <250%))
17 | COc1ccc(C(=O)Nc2ccccc2-c2cn3ccsc3n2)cc1OC [Compound 203] |  | < 5 | FOLD ACT. MS [5]: B (B (Fold Activation <250%))
18 | O=C(O)Cc1csc2nc(-c3ccccc3NC(=O)c3cnc4ccccc4n3)cn12 [Compound 721] |  | 5 to 50 | FOLD ACT. MS [6]: A (A (Fold activation >250%))
19 | COc1cc(C(=O)Nc2ccccc2-c2nc3ncccc3o2)ccc1CN(C)C [Compound 630] | 5 to 50 |  | FOLD ACT. MS [1]: A (A (Fold activation >250%))
20 | COc1ccc(C(=O)Nc2cccc(-c3nc4cccnc4s3)c2)cc1 [Compound 216] |  | < 5 | FOLD ACT. MS [5]: B (B (Fold Activation <250%))
21 | COc1cc(OC)cc(C(=O)Nc2cccc(-c3nc4ccncc4o3)c2)c1 [Compound 451] |  | 5 to 50 | FOLD ACT. MS [4]: B (B (Fold Activation <250%))
22 | O=C(Nc1cccc(-c2nc3ccncc3s2)c1)c1ccc(-c2ccccc2)o1 [Compound 241] |  | < 5 | FOLD ACT. MS [4]: B (B (Fold Activation <250%))
23 | COc1ccc(C(=O)Nc2ccc(-c3nc4cccnc4[nH]3)cc2)c(OC)c1OC [Compound 148] |  | > 150 | 
24 | COc1ccc(C(=O)Nc2ccccc2-c2nc3cccnc3[nH]2)cc1 [Compound 531] | < 5 |  | FOLD ACT. MS [1]: B (B (Fold Activation <250%))
25 | COc1cc(C(=O)Nc2ccccc2-c2nc3ccccc3[nH]2)ccc1CN1CCNCC1 [Compound 558] | < 5 |  | FOLD ACT. MS [1]: A (A (Fold activation >250%))
26 | COc1cc(C(=O)Nc2cccc(-c3nc4ccccc4c(=O)o3)c2)cc(OC)c1OC [Compound 125] |  |  | FOLD ACT. MS [5]: B (B (Fold Activation <250%))
27 | COc1ccc(C(=O)Nc2cncc(-c3nc4ncccc4o3)c2)cc1OC [Compound 67] |  | 5 to 50 | 

Row | SMILES | EC50 [2] [µM] | EC50 [3] [µM] | other results
28 | COc1ccc(C(=O)Nc2cccc(-c3nnc(-c4ccccc4)o3)c2)c(OC)c1 [Compound 82] |  | 101 to 150 | 
29 | CN(C)c1cccc(C(=O)Nc2ccc(-c3nc4ccncc4o3)cc2)c1 [Compound 408] |  | 51 to 100 | FOLD ACT. MS [4]: B (B (Fold Activation <250%))
30 | CN(C)c1ccc(C(=O)Nc2cccc(-c3nc4cnccc4s3)c2)cc1 [Compound 403] |  | < 5 | FOLD ACT. MS [4]: B (B (Fold Activation <250%))
31 | O=C(Nc1ccccc1-c1cn2c(CN3CCNCC3)csc2n1)c1cccs1 [Compound 446] |  | 5 to 50 | FOLD ACT. MS [4]: B (B (Fold Activation <250%))
32 | COc1ccc(C(=O)Nc2ccccc2-c2cn3c(CN(C)C)csc3n2)cc1OC [Compound 205] |  | 5 to 50 | FOLD ACT. MS [5]: A (A (Fold activation >250%))
33 | COc1ccc(C(=O)Nc2cccc(-c3nc4cnccc4o3)c2)c(OC)c1 [Compound 296] |  | 5 to 50 | FOLD ACT. MS [4]: B (B (Fold Activation <250%))
34 | COc1ccc(C(=O)Nc2cccc(-c3nc4ccncc4s3)c2)cc1OC [Compound 114] |  | < 5 | FOLD ACT. MS [5]: A (A (Fold activation >250%))
35 | O=C(Nc1ccccc1-c1nc2ccccc2[nH]1)c1cnc2ccccc2n1 [Compound 508] | < 5 |  | FOLD ACT. MS [1]: A (A (Fold activation >250%))
36 | COc1ccc(C)cc1S(=O)(=O)Nc1cc(-c2nc3ncccc3o2)ccn1 [Compound 653] |  |  | IC50 (Sirt1 Inhibitors, mass spectrometry assay): 101 to 150 µM
37 | COc1ccc(OC(=O)Nc2ccccc2-c2nc3ccncc3s2)cc1 [Compound 597] | < 5 |  | 
38 | COc1cc(OC)cc(C(=O)Nc2ccc(-c3nc4cnccc4s3)cc2)c1 [Compound 323] |  | 5 to 50 | FOLD ACT. MS [4]: B (B (Fold Activation <250%))
39 | O=C(Nc1cccc(-c2nc3ncccc3o2)c1)c1ccccc1 [Compound 56] |  | 5 to 50 | FOLD ACT. MS [5]: B (B (Fold Activation <250%))
40 | CN(C)c1ccc(C(=O)Nc2ccccc2-c2nc3cnccc3s2)cc1 [Compound 320] |  | < 5 | FOLD ACT. MS [4]: B (B (Fold Activation <250%))
41 | CN(C)c1ccc(C(=O)Nc2ccccc2-c2nc3ccncc3o2)cc1 [Compound 459] | < 5 |  | FOLD ACT. MS [1]: B (B (Fold Activation <250%))
42 | COC(=O)c1cc(NC(=O)c2cc(OC)c(OC)c(OC)c2)cc(-c2nc3ccncc3s2)c1 [Compound 133, methyl 3-(thiazolo[5,4-c]pyridin-2-yl)-5-(3,4,5-trimethoxybenzamido)benzoate] |  | < 5 | FOLD ACT. MS [5]: B (B (Fold Activation <250%))
43 | COc1cc(NC(=N)Nc2cc(-c3nc4ncccc4o3)ccn2)cc(OC)c1OC [Compound 635] | > 150 |  | FOLD ACT. MS [1]: A (A (Fold activation >250%))
44 | Cc1cc(C)cc(C(=O)Nc2cc(-c3nc4ncccc4o3)ccn2)c1 [Compound 468] | 5 to 50 |  | FOLD ACT. MS [1]: B (B (Fold Activation <250%))
45 | COc1cc(C(=O)Nc2ccccc2-c2nc3cc(CN4CCNCC4)cnc3s2)cc(OC)c1OC [Compound 588] | 5 to 50 |  | FOLD ACT. MS [1]: A (A (Fold activation >250%))
46 | O=C(Nc1ccccc1-c1cn2c(CN3CCNCC3)csc2n1)c1cccc(OC(F)(F)F)c1 [Compound 698] |  | < 5 | FOLD ACT. MS [6]: A (A (Fold activation >250%))
47 | COc1ccc(C(=O)Nc2ccccc2-c2cccs2)c(OC)c1 [Compound 334] |  | 5 to 50 | FOLD ACT. MS [4]: B (B (Fold Activation <250%))
48 | CN(C)c1cccc(C(=O)Nc2ccc(-c3nc4cccnc4[nH]3)cc2)c1 [Compound 180] |  | 5 to 50 | FOLD ACT. MS [5]: B (B (Fold Activation <250%))
49 | Cc1cc(C(=O)Nc2ccccc2-c2cn3c(CN4CCNCC4)csc3n2)c(C)o1 [Compound 443] |  | 5 to 50 | FOLD ACT. MS [4]: A (A (Fold activation >250%))
50 | COc1ccc(C(=O)Nc2cccc(-c3cn4ccc(C)cc4n3)c2)cc1 [Compound 130] |  | 5 to 50 | FOLD ACT. MS [5]: B (B (Fold Activation <250%))
51 | COc1ccc(NC(=S)Nc2cccc(-c3nc4ccncc4s3)c2)cc1OC [Compound 600] | > 150 |  | 
52 | COc1cc(C(=O)Nc2ccccc2-c2nc3ccccn3c2CN(C)C)cc(OC)c1OC [Compound 351] |  | 5 to 50 | FOLD ACT. MS [4]: B (B (Fold Activation <250%))
53 | O=C(Nc1ccccc1-c1nc2ccncc2s1)c1cnccn1 [Compound 391] |  | 5 to 50 | FOLD ACT. MS [4]: B (B (Fold Activation <250%))
54 | O=C(Nc1cccc(-c2nc3nc(CN4CCNCC4)ccc3o2)c1)c1cnc2ccccc2n1 [Compound 514] | 5 to 50 |  | FOLD ACT. MS [1]: B (B (Fold Activation <250%))
